Values of other authors in US20170266293A1, “METHODS OF TREATING CANCERS WITH THERAPEUTIC NANOPARTICLES” (PFIZER INC., priority 2011, published 2017).

Test system: cholangiocarcinoma
Details: previous studies, Pazdur, Am. J. Clin. Oncol. 1999

## CC(=O)O[C@@]12CO[C@@H]1C[C@H](O)[C@@]1(C)C(=O)[C@H](O)C3=C(C)[C@@H](OC(=O)[C@H](O)[C@@H](NC(=O)OC(C)(C)C)c4ccccc4)C[C@@](O)([C@@H](OC(=O)c4ccccc4)[C@H]21)C3(C)C [docetaxel]
  Efficacy for the treatment of cholangiocarcinoma: ineffective
